This passage reports Activity results from ChEMBL document CHEMBL1150049, “Isolation and characterization of an antiviral flavonoid from Waldsteinia fragarioides” (J Nat Prod, 1992).

Active and inactive are the calls of the source. The rule behind the calls is not given here.

The test system of one series is Vero. The series can be described thus: Cytotoxicity against african green monkey Vero cells at 250 ug/ml. It is filed as cell-based. Conditions: chlorocebus sabaeus.
A further series concerns Human alphaherpesvirus 1. Put plainly: Antiviral activity against HSV1 infected in african green monkey Vero cells assessed as suppression of plaque formation at 40 ug/ml by plaque-reduction assay. It is filed as functional, organism-based. In general terms: In a plaque reduction assay, fewer plaques than in the control indicate reduced infectivity or spread.

In the case of `O=c1c(O[C@@H]2O[C@H](CO)[C@@H](O)[C@H](O)[C@H]2O)c(-c2ccc(O)c(O)c2)oc2cc(O)cc(O)c12` [ISOQUERCETIN], in the series on Vero, the Activity result is reported as “Toxic”. Besides, the outcome with Human alphaherpesvirus 1 was Active.
